The values that follow come from patent publication US20130266590A1, “DIMERIC IAP INHIBITORS” (NOVARTIS AG, priority 2010, published 2013).

Read-outs that look alike come from different tables or passages of the source.

One assay has as its target cIAP1-BIR3 (Homo sapiens, UniProt Q13490). Put plainly: Biacore SPR solution competition binding assay vs smac7mer peptide, cIAP1-BIR3. The conditions noted are these: 6 nM cIAP1-BIR3, read-out: CIAP-BIR3 Binding Biacore (Competitive) EC50. An excerpt: (§1) The compounds described herein above were profiled using a cellular assay (using Panc3.27 tumor cells) and a binding assay to determine the competition between the compounds of the present invention and smac7mer peptide for XIAP-BIR3 and cIAP1-BIR3 binding groove occupancy.
(§2) The present method includes utility of a Surface plasmon resonance (SPR)-based biosensor (Biacore™, GE Healthcare, Uppsala, Sweden) to examine competition between the compounds of the present invention and smac7mer peptide for XIAP-BIR3 and cIAP1-BIR3 binding groove occupancy.
(§3) Biacore™ utilizes the phenomenon of surface plasmon resonance (SPR) to detect and measure binding interactions. In a typical Biacore experiment, one of the interacting molecules is immobilized on a flexible dextran matrix while the interacting partner is flowed over the derivatized surface. A binding interaction results in an increase in mass on the sensor surface and a corresponding direct change in the refractive index of the medium in the vicinity of the sensor surface. Changes in refractive index or signal are recorded in resonance units (R.U.) Signal changes due to association and dissociation of complexes are monitored in a non-invasive manner, continuously and in real-time, the results of which are reported in the form of a sensorgram.
(§4) Biacore™ T100 (GE Healthcare, Uppsala, Sweden) was used to conduct all experiments reported herein. Sensor surface preparation and interaction analyses were performed at 25° C. Buffer and Biacore reagents were purchased from GE Healthcare. Running buffer containing 10 mM Hepes, pH7.4, 150 mM sodium chloride, 1.25 mM Dithiothreitol, 2% Dimethyl sulfoxide and 0.05% polysorbate 20 was utilized throughout all experiments.
(§5) Biotinylated smac7mer peptide was diluted to 10 nM in running buffer and captured onto a sensor surface pre-derivatized with streptavidin (sensor chip SA) towards peptide surface densities in the range 40-100 R.U. Peptide captured surfaces were blocked with 500 μM PEO2-Biotin (Thermo Scientific).
(§6) Interaction analyses were performed by first equilibrating each compound within a six point seven fold compound dilution series in the range 1 μM to 0.06 nM with either 100 nM XIAP-BIR3 or 6 nM cIAP1-BIR3 for at least one hour during instrument start-up procedures. Protein compound mixtures were then injected over reference and smac7mer peptide surfaces in series for 60 seconds at a flow-rate of 60 μL/min. Surface regeneration was performed at the end of each analysis cycle by a 30 second injection of 10 mM Glycine, pH 2.5, 1M Sodium Chloride, 0.05% polysorbate 20. Additionally, control compound samples and control XIAP-BIR3 or cIAP1-BIR3 samples were prepared and run at regular intervals to monitor surface and assay performance.
(§7) Data analyses were carried out using Biacore™ T100 evaluation software v2.0 to validate assay quality. Binding level report points were plotted versus logarithmic compound concentration values and analyzed in Graphpad prism 5 via non-linear regression using a one-site competition model. EC50 values were generated and used as a measure of inhibitor potency.

For a further assay, the target named is XIAP-BIR3 (Homo sapiens, UniProt P98170). Kind of assay: Biacore SPR solution competition binding assay vs smac7mer peptide, XIAP-BIR3. The following applies: 100 nM XIAP-BIR3, read-out: XIAP-BIR3 Binding Biacore (Competitive) EC50.
From the text: as §1, §2, §3, §4, §5, §6, §7

The next assay deals with Panc3.27 tumor cells. Kind of assay: Cellular assay: Panc3.27 tumor cell proliferation (Cell Titer Glo). Type of assay: cell-based. The following applies: Panc3.27 cells, 4000 cells per well, 72 hour growth, CTG readout, percent control growth; read-out: PANC proliferation IC50. On the procedure:
as §1
Cellular Assay—Treatment of Panc3.27 Tumor Cells with Dimeric IAP Antagonists
On day one adherent Panc3.27 cells are plated into two 96-well, clear, flat bottom plates. All wells in row A contain 90 uL of media. All wells in rows B-G contain a total volume of 90 uL per well and 4000 cells per well for Panc3.27 cell lines. Plates are then incubated overnight for 18 hours at 37° C., 5% CO2.
On day two cells are treated with the compounds of formula M-L-M′. Treatments are done in triplicate. The compounds are first serially diluted in DMSO and then added to media giving a final concentration of 0.2% DMSO when added to cells. Cells are treated with 10 uL of serially diluted compounds of formula M-L-M′ at a final concentration of 1000 nM, 200 nM, 40 nM, 8 nM, 1.6 nM, 0.32 nM, 0.06 nM, 0.013 nM, 0.0026 nM, and one untreated well. Plate two is used as a time zero plate.
To measure cell viability 50 uL of Cell Titer Glo (CTG) solution is added to row A, media only and B, cells and media. CTG is purchased from Promega Corporation catalog number G7573. The solution is prepared according to manufacturer's instructions. CTG measures the amount of ATP released from viable cells that is proportional to the number of cells in each well. After incubating for ten minutes with CTG plates are measured on a luminescent reader at 700 nm wavelength. Read time is approximately one second per well for a 96-well plate.
On day five 50 uL of CTG is added to plate one, rows A-G, incubated for 10 minutes at room temperature and read on a luminescent reader. Raw data is adjusted to account for the time zero plate as well as background noise. Triplicate values are averaged and percent control growth is calculated. Percent control growth is calculated using the following logical test: If well read data point (a) is greater than time zero data point (t=0), then 100*[(a)−(t=0)]/[(72 hour total growth)−(t=0)], OR 100*[(a)−(t=0)]/[(t=0)]. Data is represented by line graph with the concentration of compound on the x axis and percent control growth on the y axis.

The mark [1] stands for this setting: SPR competition with captured smac7mer peptide, 25° C.

Chain of cIAP1-BIR3 (Q13490 253-363 limits assumed): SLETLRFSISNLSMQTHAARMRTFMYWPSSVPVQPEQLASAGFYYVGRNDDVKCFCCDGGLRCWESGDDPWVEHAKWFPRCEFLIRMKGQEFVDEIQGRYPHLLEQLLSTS
Chain of XIAP-BIR3 (P98170 241-356 limits assumed): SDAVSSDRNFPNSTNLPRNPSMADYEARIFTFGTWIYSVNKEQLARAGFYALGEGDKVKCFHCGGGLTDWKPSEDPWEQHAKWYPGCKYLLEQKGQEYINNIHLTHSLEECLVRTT

`CN[C@@H](C)C(=O)N[C@H](C(=O)N1CCC[C@H]1c1cncc(-c2ccc(F)c(C(=O)NCCCOCCOCCOCCOCCOCCCNC(=O)c3cc(-c4cncc([C@@H]5CCCN5C(=O)[C@@H](NC(=O)[C@H](C)NC)C5CCCCC5)c4)ccc3F)c2)c1)C1CCCCC1` [Example 1A-1]: the EC50 at cIAP1-BIR3 (Tested as the citrate salt (footnote 1), SPR competition with smac7mer peptide) lay within 1.55 to 1.6 nM; on XIAP-BIR3 (setting [1]), 353 to 359 nM. The IC50 in the assay with Panc3.27 tumor cells lay within 0.15 to 2.87 nM.
With `CN[C@@H](C)C(=O)N[C@H](C(=O)N1CCC[C@H]1c1cncc(-c2ccc(F)c(C(=O)NCCNC(=O)c3cc(-c4cncc([C@@H]5CCCN5C(=O)[C@@H](NC(=O)[C@H](C)NC)C5CCCCC5)c4)ccc3F)c2)c1)C1CCCCC1` [Example 2A-1], the EC50 is 1.1 to 1.11 nM on cIAP1-BIR3 (setting [1]) and 135 to 136 nM on XIAP-BIR3 (setting [1]). The IC50 in the assay on Panc3.27 tumor cells fell in the range of 2.11 to 7.69 nM.
For the molecule `CN[C@@H](C)C(=O)N[C@H](C(=O)N1CCC[C@H]1c1cncc(-c2ccc(F)c(C(=O)NCc3ccc(CNC(=O)c4cc(-c5cncc([C@@H]6CCCN6C(=O)[C@@H](NC(=O)[C@H](C)NC)C6CCCCC6)c5)ccc4F)cc3)c2)c1)C1CCCCC1` [Example 2B-1, (S,S,S)—N,N′-(1,4-phenylenebis(methylene))bis(5-(5-((S)-1-((S)-2-cyclohexyl-2-((S)-2-(methylamino)propanamido)acetyl)pyrrolidin-2-yl)pyridin-3-yl)-2-fluorobenzamide)], the EC50 at cIAP1-BIR3 (setting [1]) was 0.77 to 0.79 nM; at XIAP-BIR3 (setting [1]), 347 to 353 nM. For the same molecule, the IC50 in the assay with Panc3.27 tumor cells is < 0.0026 nM.
Take `CN[C@@H](C)C(=O)N[C@H](C(=O)N1CCC[C@H]1c1cncc(-c2ccc(F)c(C(=O)NCc3ccc(-c4ccc(CNC(=O)c5cc(-c6cncc([C@@H]7CCCN7C(=O)[C@@H](NC(=O)[C@H](C)NC)C7CCCCC7)c6)ccc5F)cc4)cc3)c2)c1)C1CCCCC1` [Example 2C-2, (S,S,S)—N,N′-(biphenyl-4,4′-diylbis(methylene))bis(5-(5-((S)-1-((S)-2-cyclohexyl-2-((S)-2-(methylamino)propanamido)acetyl)pyrrolidin-2-yl)pyridin-3-yl)-2-fluorobenzamide)]: the EC50 at cIAP1-BIR3 (setting [1]) was 0.98 to 0.99 nM; at XIAP-BIR3 (Tested as the trifluoroacetate salt (footnote 2), SPR competition with smac7mer peptide), 2330 to 2390 nM. Moreover, in the assay with Panc3.27 tumor cells, the IC50 was < 0.0026 nM.
Turning to `CN[C@@H](C)C(=O)N[C@H](C(=O)N1CCC[C@H]1c1cncc(-c2ccc(F)c(C(=O)NCCCCCCCCCCNC(=O)c3cc(-c4cncc([C@@H]5CCCN5C(=O)[C@@H](NC(=O)[C@H](C)NC)C5CCCCC5)c4)ccc3F)c2)c1)C1CCCCC1` [Example 2D-1], the EC50 at cIAP1-BIR3 (setting [1]) was 1.35 to 2.17 nM; at XIAP-BIR3 (setting [1]) it was 1520 to 1920 nM. For the same molecule, the IC50 with Panc3.27 tumor cells was 0.0026 to 0.15 nM.
For `CN[C@@H](C)C(=O)N[C@H](C(=O)N1CCC[C@H]1c1cncc(-c2ccc(F)c(C(=O)NCCCCCCCCCCCCNC(=O)c3cc(-c4cncc([C@@H]5CCCN5C(=O)[C@@H](NC(=O)[C@H](C)NC)C5CCCCC5)c4)ccc3F)c2)c1)C1CCCCC1` [Example 2E-1], in that order: 5.65 to 6.37 nM, > 1000 nM and 0.07 to 4.93 nM.
The like results for `CN[C@@H](C)C(=O)N[C@H](C(=O)N1CCC[C@H]1c1cncc(-c2ccc(F)c(C(=O)NCCCCCCNC(=O)c3cc(-c4cncc([C@@H]5CCCN5C(=O)[C@@H](NC(=O)[C@H](C)NC)C5CCCCC5)c4)ccc3F)c2)c1)C1CCCCC1` [Example 2F-1] were, in that order, 1.34 to 1.36 nM, 305 to 306 nM and 0.0026 to 0.01 nM.
The like results for `CN[C@@H](C)C(=O)N[C@H](C(=O)N1CCC[C@H]1c1cncc(-c2ccc(F)c(C(=O)NCCCCCCCCNC(=O)c3cc(-c4cncc([C@@H]5CCCN5C(=O)[C@@H](NC(=O)[C@H](C)NC)C5CCCCC5)c4)ccc3F)c2)c1)C1CCCCC1` [Example 2G-1, (S,S,S)—N,N′-(octane-1,8-diyl)bis(5-(5-((S)-1-((S)-2-cyclohexyl-2-((S)-2-(methylamino)propanamido)acetyl)pyrrolidin-2-yl)pyridin-3-yl)-2-fluorobenzamide)] were, in that order, 1.26 to 1.31 nM, 426 to 495 nM and 0.0026 to 0.03 nM.
In the case of `CN[C@@H](C)C(=O)N[C@H](C(=O)N1CCC[C@H]1c1cncc(-c2ccc(F)c(C(=O)NCCOCCOCCNC(=O)c3cc(-c4cncc([C@@H]5CCCN5C(=O)[C@@H](NC(=O)[C@H](C)NC)C5CCCCC5)c4)ccc3F)c2)c1)C1CCCCC1` [Example 2H-1], the concentration giving a half-maximal response (EC50) at cIAP1-BIR3 (setting [1]) was 1.84 to 1.89 nM; at XIAP-BIR3 (setting [1]), 244 to 252 nM. Besides, the IC50 in the assay on Panc3.27 tumor cells was in the range of 0.03 to 0.07 nM.
For `CN[C@@H](C)C(=O)N[C@H](C(=O)N1CCC[C@H]1c1cncc(-c2ccc(F)c(C(=O)NCCCCNC(=O)c3cc(-c4cncc([C@@H]5CCCN5C(=O)[C@@H](NC(=O)[C@H](C)NC)C5CCCCC5)c4)ccc3F)c2)c1)C1CCCCC1` [Example 2I-1], in that order: 2.79 to 2.8 nM, 318 to 326 nM and 0.0026 to 0.4 nM.
Regarding `CN[C@@H](C)C(=O)N[C@H](C(=O)N1CCC[C@H]1c1cncc(-c2ccc(F)c(C(=O)NCCCOCCOCCOCCCNC(=O)c3cc(-c4cncc([C@@H]5CCCN5C(=O)[C@@H](NC(=O)[C@H](C)NC)C5CCCCC5)c4)ccc3F)c2)c1)C1CCCCC1` [Example 2J-2], the EC50 on cIAP1-BIR3 (setting [1]) was 1.39 to 1.4 nM; on XIAP-BIR3 (setting [1]), 156 nM. In addition, the IC50 with Panc3.27 tumor cells fell in the range of 0.03 to 0.59 nM.
For `CN[C@@H](C)C(=O)N[C@H](C(=O)N1CCC[C@H]1c1cncc(-c2ccc(F)c(C(=O)N[C@H]3CC[C@H](NC(=O)c4cc(-c5cncc([C@@H]6CCCN6C(=O)[C@@H](NC(=O)[C@H](C)NC)C6CCCCC6)c5)ccc4F)CC3)c2)c1)C1CCCCC1` [Example 2K-1], in that order: 1.65 to 1.66 nM, 321 to 322 nM and < 0.0026 nM.
For `CN[C@@H](C)C(=O)N[C@H](C(=O)N1CCC[C@H]1c1cncc(-c2ccc(F)c(C(=O)NCCCOCCOCCCNC(=O)c3cc(-c4cncc([C@@H]5CCCN5C(=O)[C@@H](NC(=O)[C@H](C)NC)C5CCCCC5)c4)ccc3F)c2)c1)C1CCCCC1` [Example 2L-2], in that order: 3.35 to 3.38 nM, 480 to 488 nM and 0.01 to 0.56 nM.
For `CN[C@@H](C)C(=O)N[C@H](C(=O)N1CCC[C@H]1c1cncc(-c2ccc(F)c(C(=O)N3CC4(C3)CN(C(=O)c3cc(-c5cncc([C@@H]6CCCN6C(=O)[C@@H](NC(=O)[C@H](C)NC)C6CCCCC6)c5)ccc3F)C4)c2)c1)C1CCCCC1` [Example 2M-2], in that order: 3.74 to 3.75 nM, 176 to 177 nM and 9.02 to 40.8 nM.
